pIC50: −log10 of the molar value.
Target: T1, C-terminal GST-tagged, recombinant, human IGF-1R, amino acids 954-1367 (Homo sapiens, UniProt P08069)
T1 construct: human IGF-1R, amino acids 954-1367 expressed by baculovirus in Sf21 cells; GST (C); purchased Cell Signaling Technology; host or cells: baculovirus in Sf21 cells
Test: IGF-1R kinase activity, homogenous time-resolved fluorescence (HTRF) in vitro kinase assay
Assay type: biochemical
Conditions: IGF-1R kinase HTRF assay, ATP 50 μM, biotinylated peptide substrate 0.5 μM, 60 minutes at room temperature
Protocol: IGF-1R kinase activity was assayed by a homogenous time-resolved fluorescence (HTRF) in vitro kinase assay (Mathis, G., HTRF(R) Technology. J Biomol Screen, 1999. 4(6): p. 309-314). Specifically, 10 μL C-terminal GST-tagged, recombinant, human IGF-1R, amino acids 954-1367 expressed by baculovirus in Sf21 cells (Cell Singaling Technology) was mixed with 10 μL inhibitor (various concentrations, 2% final DMSO) and 10 μL of ATP (50 μM final concentration) in reaction buffer (50 mM HEPES, pH […], 2 mM MnCl2, 0.1% BSA and 1 mM DTT, 40 μL final volume). The reaction was initiated by addition of 10 μL of biotinylated peptide substrate (Biotin-Ahx-[…], 0.5 μM final concentration) in a black 384-well plate (Packard). After 60 minutes incubation at room temperature, the reaction was quenched by addition of 60 μL stop/revelation buffer to give 30 mM EDTA, 1 μg/mL streptavidin-APC (Prozyme), 50 ng/mL anti-phosphotyrosine mAb PT66-K Europium Cryptate, 30 mM HEPES, pH 7.5, 120 mM KF, 0.005% Tween-20, 0.05% BSA). The quenched reaction was allowed to stand at room temperature for 1 hour and then read in a time-resolved fluorescence detector (Envision, Perkin Elmer) at 615 nm and 665 nm simultaneously. The ratio between the signal of 615 nm and 665 nm was used in the calculation of the IC50.

T1 sequence (P08069 954-1367): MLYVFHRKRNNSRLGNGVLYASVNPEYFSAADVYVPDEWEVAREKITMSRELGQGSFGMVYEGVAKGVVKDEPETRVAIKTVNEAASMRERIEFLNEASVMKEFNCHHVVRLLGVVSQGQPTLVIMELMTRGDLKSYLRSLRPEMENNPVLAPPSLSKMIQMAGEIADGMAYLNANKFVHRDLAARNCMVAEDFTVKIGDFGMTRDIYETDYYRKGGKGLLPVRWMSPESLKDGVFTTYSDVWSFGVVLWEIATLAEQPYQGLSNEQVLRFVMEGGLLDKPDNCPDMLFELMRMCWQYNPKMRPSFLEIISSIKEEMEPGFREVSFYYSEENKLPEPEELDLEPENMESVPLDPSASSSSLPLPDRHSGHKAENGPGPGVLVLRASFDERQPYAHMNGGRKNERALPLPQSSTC

Row | SMILES | pIC50
1 | CN(C)CCc1cccc(Nc2nccc(-c3c(-c4ccc(OCc5ccccc5)c(Cl)c4)nc4ccccn34)n2)c1 [Example 11, 4-{2-[4-(benzyloxy)-3-chlorophenyl]imidazo[1,2-a]pyridin-3-yl}-N-{3-[2-(dimethylamino)ethyl]phenyl}pyrimidin-2-amine] | 6.30 to 7.00
2 | OCCn1cc(Nc2nccc(-c3c(-c4ccc(OCc5ccccc5)cc4)nc4ccccn34)n2)cn1 [Example 27, 2-{4-[(4-{2-[4-(benzyloxy)phenyl]imidazo[1,2-a]pyridin-3-yl}pyrimidin-2-yl)amino]-1H-pyrazol-1-yl}ethanol] | 6.30 to 7.00
3 | COc1cc(-c2nc3ccccn3c2-c2ccnc(Nc3ccc(CCN4CCCC4)cc3)n2)ccc1OCc1ccccc1 [Example 23, 4-{2-[4-(benzyloxy)-3-methoxyphenyl]imidazo[1,2-a]pyridin-3-yl}-N-[4-(2-pyrrolidin-1-ylethyl)phenyl]pyrimidin-2-amine] | 7.00 to 7.60
4 | c1ccc(COc2ccc(-c3nc4ccccn4c3-c3ccnc(Nc4cc(C5CC5)n[nH]4)n3)cc2)cc1 [Example 15, 4-{2-[4-(benzyloxy)phenyl]imidazo[1,2-a]pyridin-3-yl}-N-(3-cyclopropyl-1H-pyrazol-5-yl)pyrimidin-2-amine] | < 6.00
5 | CN(C)CCc1cccc(Nc2nccc(-c3c(-c4ccc(OCc5ccccc5)c(F)c4)nc4ccccn34)n2)c1 [Example 9, 4-{2-[4-(benzyloxy)-3-fluorophenyl]imidazo[1,2-a]pyridin-3-yl}-N-{3-[2-(dimethylamino)ethyl]phenyl}pyrimidin-2-amine] | 7.00 to 7.60
6 | COc1cc(-c2nc3ccccn3c2-c2ccnc(Nc3cccc(N4CCOCC4)c3)n2)ccc1OCc1ccccc1 [Example 25, 4-{2-[4-(benzyloxy)-3-methoxyphenyl]imidazo[1,2-a]pyridin-3-yl}-N-(3-morpholin-4-ylphenyl)pyrimidin-2-amine] | 6.30 to 7.00
7 | CN(C)CCc1cccc(Nc2nccc(-c3c(-c4ccc(OCc5ccccc5F)cc4)nc4ccccn34)n2)c1 [Example 18, N-{3-[2-(dimethylamino)ethyl]phenyl}-4-(2-{4-[(2-fluorobenzyl)oxy]phenyl}imidazo[1,2-a]pyridin-3-yl)pyrimidin-2-amine] | 6.30 to 7.00
8 | CN(C)S(=O)(=O)c1cccc(Nc2nccc(-c3c(-c4ccc(OCc5ccccc5)cc4)nc4ccccn34)n2)c1 [Example 5, 3-[(4-{2-[4-(benzyloxy)phenyl]imidazo[1,2-a]pyridin-3-yl}pyrimidin-2-yl)amino]-N,N-dimethylbenzenesulfonamide] | < 6.00
9 | Fc1ccc(Nc2nccc(-c3c(-c4ccc(OCc5ccccc5)cc4)nc4ccccn34)n2)c(F)c1 [Example 29, 4-{2-[4-(benzyloxy)phenyl]imidazo[1,2-a]pyridin-3-yl}-N-(2,4-difluorophenyl)pyrimidin-2-amine] | < 6.00
10 | COc1ccc(COc2ccc(-c3nc4ccccn4c3-c3ccnc(Nc4cccc(CCN(C)C)c4)n3)cc2)cc1 [Example 17, N-{3-[2-(dimethylamino)ethyl]phenyl}-4-(2-{4-[(4-methoxybenzyl)oxy]phenyl}imidazo[1,2-a]pyridin-3-yl)pyrimidin-2-amine] | 6.30 to 7.00
11 | CS(=O)(=O)c1ccc(Nc2nccc(-c3c(-c4ccc(OCc5ccccc5)cc4)nc4ccccn34)n2)cc1 [Example 6, 4-{2-[4-(benzyloxy)phenyl]imidazo[1,2-a]pyridin-3-yl}-N-[4-(methylsulfonyl)phenyl]pyrimidin-2-amine] | < 6.00
12 | Cn1cc(Nc2nccc(-c3c(-c4ccc(OCc5ccccc5)cc4)nc4ccccn34)n2)cn1 [Example 26, 4-{2-[4-(benzyloxy)phenyl]imidazo[1,2-a]pyridin-3-yl}-N-(1-methyl-1H-pyrazol-4-yl)pyrimidin-2-amine] | 6.30 to 7.00

Now from value to molecule:

Row | pIC50 | SMILES
13 | < 6.00 | CN(C)CCc1cccc(Nc2nccc(-c3c(-c4ccc(OCc5ccccc5)cc4)nn4cc(F)ccc34)n2)c1 [Example 77, 4-{2-[4-(benzyloxy)phenyl]-6-fluoropyrazolo[1,5-a]pyridin-3-yl}-N-{3-[2-(dimethylamino)ethyl]phenyl}pyrimidin-2-amine]
14 | < 6.00 | COc1ccc(C(F)(F)F)cc1Nc1nccc(-c2c(-c3ccc(OCc4ccccc4)c(OC)c3)nc3ccccn23)n1 [Example 40, 4-{2-[4-(benzyloxy)-3-methoxyphenyl]imidazo[1,2-a]pyridin-3-yl}-N-[2-methoxy-5-(trifluoromethyl)phenyl]pyrimidin-2-amine]
15 | 7.00 to 7.60 | COc1ccc(S(C)(=O)=O)cc1Nc1nccc(-c2c(-c3ccc(OCc4ccccc4)c(OC)c3)nc3ccccn23)n1 [Example 34, 4-{2-[4-(benzyloxy)-3-methoxyphenyl]imidazo[1,2-a]pyridin-3-yl}-N-[2-methoxy-5-(methylsulfonyl)phenyl]pyrimidin-2-amine]
16 | < 6.00 | COc1ccccc1Nc1nccc(-c2c(-c3ccc(OCc4ccccc4)cc3)nc3sccn23)n1 [Example 79, 4-{6-[4-(benzyloxy)phenyl]imidazo[2,1-b][1,3]thiazol-5-yl}-N-(2-methoxyphenyl)pyrimidin-2-amine]
17 | > 7.60 | COc1cc(N2CCC(N(C)C)CC2)ccc1Nc1nccc(-c2c(-c3ccc(OCc4ccccc4)c(OC)c3)nc3sccn23)n1 [Example 84, 4-{6-[4-(benzyloxy)-3-methoxyphenyl]imidazo[2,1-b][1,3]thiazol-5-yl}-N-{4-[4-(dimethylamino)piperidin-1-yl]-2-methoxyphenyl}pyrimidin-2-amine]
18 | 7.00 to 7.60 | COc1cc(-c2nc3sccn3c2-c2ccnc(Nc3ccc(CN(C)C)cc3)n2)ccc1OCc1ccccc1 [Example 83]
19 | > 7.60 | CN(C)CCc1cccc(Nc2nccc(-c3c(-c4ccc(OCc5ccccc5)cc4)nn4ncccc34)n2)c1 [Example 76, 4-{2-[4-(benzyloxy)phenyl]pyrazolo[1,5-b]pyridazin-3-yl}-N-{3-[2-(dimethylamino)ethyl]phenyl}pyrimidin-2-amine]
20 | 6.30 to 7.00 | COc1ccc(N2CCOCC2)cc1Nc1nccc(-c2c(-c3ccc(OCc4ccccc4)c(OC)c3)nc3ccccn23)n1 [Example 52, 4-{2-[4-(benzyloxy)-3-methoxyphenyl]imidazo[1,2-a]pyridin-3-yl}-N-(2-methoxy-5-morpholin-4-ylphenyl)pyrimidin-2-amine]
21 | < 6.00 | COc1cc(-c2nc3sccn3c2-c2ccnc(Nc3ccccc3CN3CCCC3)n2)ccc1OCc1ccccc1 [Example 82, 4-{6-[4-(benzyloxy)-3-methoxyphenyl]imidazo[2,1-b][1,3]thiazol-5-yl}-N-[2-(pyrrolidin-1-ylmethyl)phenyl]pyrimidin-2-amine]
22 | 6.30 to 7.00 | COc1cc(-c2nc3ccccn3c2-c2ccnc(Nc3cnn(CCN4CCCC4)c3)n2)ccc1OCc1ccccc1 [Example 37, 4-{2-[4-(benzyloxy)-3-methoxyphenyl]imidazo[1,2-a]pyridin-3-yl}-N-[1-(2-pyrrolidin-1-ylethyl)-1H-pyrazol-4-yl]pyrimidin-2-amine]
23 | > 7.60 | COc1cc(-c2nc3ccccn3c2-c2ccnc(Nc3cccc(OCCN4CCCC4)c3)n2)ccc1OCc1ccccc1 [Example 30, 4-{2-[4-(benzyloxy)-3-methoxyphenyl]imidazo[1,2-a]pyridin-3-yl}-N-[3-(2-pyrrolidin-1-ylethoxy)phenyl]pyrimidin-2-amine]
24 | 7.00 to 7.60 | COc1cc(-c2nc3ccccn3c2-c2ccnc(Nc3ccc4c(c3)CN(C)CC4)n2)ccc1OCc1ccccc1 [Example 60, N-(4-{2-[4-(benzyloxy)-3-methoxyphenyl]imidazo[1,2-a]pyridin-3-yl}pyrimidin-2-yl)-2-methyl-1,2,3,4-tetrahydroisoquinolin-7-amine]
25 | 6.30 to 7.00 | CCN(CCO)c1cccc(Nc2nccc(-c3c(-c4ccc(OCc5ccccc5)c(OC)c4)nc4ccccn34)n2)c1 [Example 31, 2-[{3-[(4-{2-[4-(benzyloxy)-3-methoxyphenyl]imidazo[1,2-a]pyridin-3-yl}pyrimidin-2-yl)amino]phenyl}(ethyl)amino]ethanol]
26 | > 7.60 | COc1cc(-c2nc3ccccn3c2-c2ccnc(Nc3ccc(CCN(C)C)cc3)n2)ccc1OCc1ccccc1 [Example 69, 4-{2-[4-(benzyloxy)-3-methoxyphenyl]imidazo[1,2-a]pyridin-3-yl}-N-{4-[2-(dimethylamino)ethyl]phenyl}pyrimidin-2-amine]
27 | 6.30 to 7.00 | COc1cc(N2CCOCC2)ccc1Nc1nccc(-c2c(-c3ccc(OCc4ccccc4)c(OC)c3)nc3ccccn23)n1 [Example 39, 4-{2-[4-(benzyloxy)-3-methoxyphenyl]imidazo[1,2-a]pyridin-3-yl}-N-(2-methoxy-4-morpholin-4-ylphenyl)pyrimidin-2-amine]
28 | 6.30 to 7.00 | COc1cc(N2CCC(N3CCSCC3)CC2)ccc1Nc1nccc(-c2c(-c3ccc(OCc4ccccc4)c(OC)c3)nc3ccccn23)n1 [Example 56, 4-{2-[4-(benzyloxy)-3-methoxyphenyl]imidazo[1,2-a]pyridin-3-yl}-N-[2-methoxy-4-(4-thiomorpholin-4-ylpiperidin-1-yl)phenyl]pyrimidin-2-amine]
